Assay results as given in US9034906B2, “EP4 agonist” (Asahi Glass Company, Limited, priority 2008, dated 2015).

Assays:
[1] = Effect on blood pressure and heart rate in mice; assay type: in vivo, mouse; details: ICR mice, intravenous 0.01 mg/kg, isoflurane anesthesia
Method: Male ICR mice (5 weeks old, Japan SLC) were purchased, acclimated for 6 days and used for the test. The animals were treated and measured under isoflurane inhalation anesthesia (anesthesia introduced at 2.5%, maintained at 1.8-2.1%), while body temperature was kept at 37° C. with a Heat Controller (ATC-402, Unique Medical Co., Ltd.). A catheter for administration of test compounds was inserted into the left femoral vein, and another catheter was inserted into the right femoral artery and connected to a pressure transducer to record each parameter of hemodynamics.
Compound F, the carboxylate form of compound F and BPS were intravenously administered at a dose of 0.01 mg/5 mL/kg, and the effect on the mean blood pressure and heart rate was evaluated with computer software for the analysis of hemodynamics (Fluclet, Dainippon Sumitomo Pharma Co., Ltd.). To the control group was intravenously administered a solvent (1.2% ethanol solution) at 5 mL/kg in the same manner. The results are expressed as a ratio of change in each parameter before and after the drug administration. Three to 6 animals were used for each group, and the results were expressed as average±standard deviation.

[2] = tested on: dextran sodium sulfate-induced colitis; assay: Remission/relapse model of dextran sodium sulfate-induced colitis in mice, therapeutic; assay type: in vivo, mouse; details: compound F 1 mg/kg, SASP 100 mg/kg, oral once a day for 50 days
Text: Next, therapeutic effect of compound F on colitis was studied in a chronic model. Female BALB/c mice, 6 weeks old, body weight about 20 g (Japan SLC) were purchased, acclimated for 1 week and used for the study. The mice were divided into a colitis induction group and a normal group. The colitis induction group was allowed to freely drink a 2.6 w/v % DSS (MP Biochemicals, M.W. 36,000-50,000, Lot No. 4556J) solution to induce colitis. On day 8 when the stool score (defined in Example 23) of the colitis induction group reached about 4.5, the mice were subdivided into a control group, a compound F 1 mg/kg administration group and a salazosulfapyridine (SIGMA, Lot No. 085K1930, hereinafter to be abbreviated as SASP) 100 mg/kg administration group. Then the mice were allowed to freely drink distilled water instead of DSS solution for 9 days (remission period). After the grouping, the stool score was evaluated every 3-4 days. […]
Compound F at a dose of 1 mg/kg and SASP at a dose of 100 mg/kg were orally administered once a day, daily, for 50 days from the initial remission period (day 8 from the start of 2.6 w/v % DSS drinking) to the fifth remission period (day 57 from the start of 2.6 w/v % DSS drinking). […] The remission ratio (%) was calculated as a ratio of mice in remission in each group. […]

T cell transfer colitis = assay: CD4+CD25- T cell transfer colitis model in mice; assay type: in vivo, mouse; details: C.B-17/Icr-scid mice, oral 1 mg/kg once a day
Text: The effect on Crohn's disease, another type of inflammatory bowel disease, was studied. T cell transfer model is well known as a Crohn's disease model, which develops chronic […] or enteritis (see: References F, G, H). In addition, it can also be regarded as an animal model of intestinal Behcet's disease or simple ulcer, suffering from similar intestinal ulcer accompanied by activation of T cells (see: References I, J).
Female BALB/cA Jcl mice, 6 weeks old, body weight 19-23 g (CLEA Japan, Inc.) and female C.B-17/Icr-scid mice (6 weeks old, CLEA Japan, Inc.) were purchased, acclimated for 1 week and used for the study.
After laparotomy under ether anesthesia, BALB/cA Jcl mice were exsanguinated to death through the abdominal aorta and caudal vena cava, and the spleen was isolated. Splenocytes were prepared from the spleen and then CD4^+CD25^− T cells were prepared with a CD4^+ T cell Isolation Kit (No. 130-090-860, Milky Biotech Co., Ltd.) and CD25-Biotin antibody (No. 130-092-569, Milky Biotech Co., Ltd.). The cells were separated using the autoMACS Separator (Milky Biotech Co., Ltd.). The separated CD4^+CD25^− T cells were suspended in physiological phosphate buffer solution, and 2.5×10^5 cells per animal were intraperitoneally administered to C.B-17/Icr-scid mice to induce colitis.
One mg/kg of compound F or prednisolone was initially administered at 5 hr before transfer of CD4^+CD25^− T cells, and orally administered thereafter once a day, daily, for 20 days. To the control group was orally administered a solvent (1 vol % ethanol solution) at 10 mL/kg. A clinical endpoint was the sum of stool consistency score (0-5), fecal occult blood score (0-4) and body weight decrease score (0-5), termed as the Disease Activity Index score (hereinafter to be abbreviated as DAI score: highest score 14). The stool consistency score was graded for the hardness of stool as normal (0), slightly loose (1), somewhat loose (2), loose (3), considerably loose (4) and diarrhea (5). The fecal occult blood score was evaluated in the same manner as in Example 23. The body weight decrease score was graded for the changes in the body weight as increase (0), decrease of less than 3% (1), decrease of not less than 3% and less than 6% (2), decrease of not less than 6% and less than 9% (3), decrease of not less than 9% and less than 12% (4), and decrease of not less than 12% (5). Eight to 10 mice were used for each group and the results were expressed as average.

[3] = In vitro metabolic stability: NADPH-independent β oxidation reaction in rat liver mitochondria fraction; assay type: in vitro ADME; details: 37° C., 30 min, tested as isomer mixtures, average±SD of 3 experiments
Method: A mixture of the compound F and compound J of the present invention described in Table 1 (F:J=52:41, synthesized in Example 14), and a mixture of compounds wherein the tetrazole groups at C-1 of compound F and compound J are respectively substituted by carboxylic acid (referred to as carboxylate form, F:J=54:34, synthesized in Example 15) were tested.
First, a mitochondria fraction was prepared from the rat liver according to the following Reference A. Then, in reference to the method of […] et al. described in the following References B and C, an NADPH-independent β oxidation reaction was studied. The reaction was carried out at 37° C. for 30 min, and stopped with a methanol solution containing a suitable internal standard substance. Each compound was quantified by the internal standard method using a high performance liquid chromatography mass spectrometry apparatus (LC-MS/MS). The compound residual ratio after metabolic reaction of compounds F, J and each carboxylate form thereof in rat mitochondria fraction is shown in the following Table 2 in average±standard deviation of 3 experiments.

With `Cc1cccc([C@@H](C)[C@H](O)/C=C/[C@@H]2[C@@H]3[C@H](C[C@H]2O)O/C(=C\CCCc2nnn[nH]2)C3(F)F)c1` [Compound F, 4-[(Z)-(1S,5R,6R,7R)-6-[(1E,3R,4R)-3-hydroxy-4-(m-tolyl)-1-pentenyl]-7-hydroxy-2-oxa-4,4-difluoro-bicyclo[3.3.0]octan-3-ylidene]-1-(tetrazol-5-yl)butane] the “Effect on heart rate” value [1] was “little effect”, the “Maximum decrease ratio of mean blood pressure” value [1] was 16.2% and the “Effect on stool score in remission and relapse periods” value [2] was “decreased the stool score early in the remission period, and suppressed an increase in the score in the relapse period”. The DAI score (T cell transfer colitis) was “comprehensively superior to prednisolone”, the “Effect on body weight decrease score” value (T cell transfer colitis) was “prevented the increase in the body weight decrease score almost completely” and the “Effect on fecal occult blood score” value (T cell transfer colitis) was “suppressed the increases in both the stool consistency score and the fecal occult blood score by almost half”. For the same compound, the “Effect on stool consistency score” value (T cell transfer colitis) was “suppressed the increases in both the stool consistency score and the fecal occult blood score by almost half” and the “Residual ratio of parent compound after β-oxidation reaction” value [3] was 91.6 ± 6.8%.
